In patent publication US12473250B2, “Molecular design of new antibiotics and antibiotic adjuvants against MCR strains” (priority 2019, dated 2025):
Values after ≈ are worked out from the molar mass of the structure shown.

How the values were obtained:
Type in all cases: cell-based
[1] = system: colistin resistant MCR (+) E. Coli strains; experiment: MIC, broth microdilution, compound alone; settings: compound alone
Method in brief: (§1)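 Modified CLSI broth microdilution; inoculum from 18–20 h TSA colonies adjusted to 0.5 McFarland, ~5×10^5 CFU/mL per well. Plates incubated 24 h at 35 °C; turbidity may be read at OD600. MIC defined as concentration giving 99% inhibition.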

[2] = system: colistin resistant MCR (−) E. Cloacae strain 7023456439; experiment: MIC, broth microdilution, compound alone; settings: strain 7023456439 E. Cloacae
Method in brief: as §1

[3] = system: colistin resistant MCR (−) E. Coli strains; experiment: MIC, broth microdilution, compound alone
Method in brief: as §1

[4] = system: colistin resistant MCR (+) E. Coli strains; experiment: Synergy study: colistin MIC in the presence of compound
Method in brief: (§2)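 CLSI broth microdilution with colistin and LC compound added in equal amounts, 2-fold serial dilution, alone or combined at fixed synergy concentration. MIC taken as lowest concentration with no visible growth after 24 hours of incubation.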

[5] = system: colistin resistant MCR (−) E. Cloacae strain 7023456439; experiment: as above; settings: strain 7023456439 E. Cloacae
Method in brief: as §2

[6] = system: colistin resistant MCR (−) E. Coli strains; experiment: as above
Method in brief: as §2

[7] = compound at 5 μg (Table 2a: 5 ug/ml)
[8] = strain 6083672926, MCR(−), compound at 5 μg (Table 2a: 5 ug/ml)
[9] = strain 7023446108, MCR(−), compound at 5 μg (Table 2a: 5 ug/ml)
[10] = strain 7033607097, MCR(−), compound at 5 μg (Table 2a: 5 ug/ml)
[11] = strain 6083655967, MCR(+), compound at 10 μg (Table 2a: 10 ug/ml)
[12] = strain 7023444207, MCR(+), compound at 10 μg (Table 2a: 10 ug/ml)
[13] = compound at 10 μg (Table 2a: 10 ug/ml)
[14] = strain 6083672926, MCR(−), compound at 10 μg (Table 2a: 10 ug/ml)
[15] = strain 7023446108, MCR(−), compound at 10 μg (Table 2a: 10 ug/ml)
[16] = strain 7033607097, MCR(−), compound at 10 μg (Table 2a: 10 ug/ml)

Row | Compound | MIC ([1]; strain 6075066346, MCR (+)) [µg/mL] | MIC ([1]; strain 6083655967, MCR (+)) [µg/mL] | MIC ([1]; strain 6103645107, MCR (+)) [µg/mL] | MIC ([1]; strain 6123520276, MCR (+)) [µg/mL] | MIC ([1]; strain 7013177695, MCR (+)) [µg/mL] | MIC ([1]; strain 7023436560, MCR (+)) [µg/mL] | MIC ([1]; strain 7023444207, MCR (+)) [µg/mL] | MIC [2] [µg/mL] | MIC ([3]; strain 6083672926, MCR (−)) [µg/mL] | MIC ([3]; strain 7023446108, MCR (−)) [µg/mL] | MIC ([3]; strain 7033607097, MCR (−)) [µg/mL] | Colistin MIC in the presence of the compound [5, 7] [µg/mL] | Colistin MIC in the presence of the compound [6, 8] [µg/mL] | Colistin MIC in the presence of the compound [6, 9] [µg/mL] | Colistin MIC in the presence of the compound [6, 10] [µg/mL] | Colistin MIC in the presence of the compound [4, 11] [µg/mL] | Colistin MIC in the presence of the compound [4, 12] [µg/mL] | Colistin MIC in the presence of the compound [5, 13] [µg/mL] | Colistin MIC in the presence of the compound [6, 14] [µg/mL] | Colistin MIC in the presence of the compound [6, 15] [µg/mL] | further results
1 | CC1(C)C=Cc2c(ccc3c2OCC(c2ccc(OCCCCC[N+](C)(C)C)cc2OCCCCC[N+](C)(C)C)C3)O1 (centres unmarked) [LC316] | 50 | 50 | 50 | 50 | 50 | 50 | 50 | >50 | >50 | 50 | >50 | >12.5 | 6.25 | 1.56 | 1.56 |  |  |  |  |  | Colistin MIC in the presence of the compound ([4]; strain 6075066346, MCR(+), compound at 5 μg (Table 2a: 5 ug/ml)): 1.55 µg/mL
2 | O=C(C=Cc1ccc(OCCCCN2CCNCCNCCNCC2)cc1)c1ccc(OCCCCN2CCNCCNCCNCC2)cc1O.[Cl][Zn][Cl].[Cl][Zn][Cl] [LC304] | >50 | >50 | >50 | >50 | >50 | >50 |  | >50 | >50 | >50 | >50 | >12.5 | 12.5 | 3.125 | 3.125 | 1.56 | 1.56 | >12.5 | 12.5 | 3.125 | MIC ([1]; strain 7028444207 (Table 1b), MCR (+)): >50 µg/mL; Colistin MIC in the presence of the compound [6, 16]: 3.125 µg/mL
3 | CN(C)CCCN(CCCCOc1ccc(C2COc3c(ccc4c3C=CC(C)(C)O4)C2)c(OCCCCN(CCCN(C)C)CCCN(C)C)c1)CCCN(C)C (centres unmarked) [LC095] | 50 (≈ 61.9 µM) | 50 (≈ 61.9 µM) | 25 (≈ 31 µM) | 50 (≈ 61.9 µM) | 25 (≈ 31 µM) | 25 (≈ 31 µM) | 25 (≈ 31 µM) | >50 | 25 (≈ 31 µM) | 25 (≈ 31 µM) | 25 (≈ 31 µM) |  |  |  |  | 3.125 | 1.56 | >12.5 | 12.5 | 3.125 | Colistin MIC in the presence of the compound ([4]; strain 6075066346, MCR(+), compound at 10 μg (Table 2a: 10 ug/ml)): 3.125 µg/mL; Colistin MIC in the presence of the compound ([4]; strain 6103645107, MCR(+), compound at 10 μg (Table 2a: 10 ug/ml)): 3.125 µg/mL; Colistin MIC in the presence of the compound ([4]; strain 6123520276, MCR(+), compound at 10 μg (Table 2a: 10 ug/ml)): 1.56 µg/mL; Colistin MIC in the presence of the compound ([4]; strain 7013177695, MCR(+), compound at 10 μg (Table 2a: 10 ug/ml)): 3.125 µg/mL; Colistin MIC in the presence of the compound ([4]; strain 7023436560, MCR(+), compound at 10 μg (Table 2a: 10 ug/ml)): 3.125 µg/mL; Colistin MIC in the presence of the compound [6, 16]: 3.125 µg/mL
